Measurements taken from PMC4865823, “Plant phosphomannose isomerase as a selectable marker for rice transformation” (Scientific Reports, 2016).

Tested on: T1, OsPMI2 (GST-OsPMI2)
T1 construct: full CDS, N-terminal GST tag kept, E. coli Rosetta (DE3) pLysS; denatured from inclusion bodies and recovered
Test: PGI/G6PDH-coupled assay, NADP reduction at […] nm, Lineweaver-Burk
Type: biochemical, Oryza sativa subsp. japonica
Settings: 50 mM Tris-HCl pH 7.5, 30 °C; M-6-P to F-6-P; enzyme recovered from denatured inclusion bodies

Q: Which Km does the source give for `O=P(O)(O)OC[C@H]1OC(O)[C@@H](O)[C@@H](O)[C@@H]1O` (stereo partly shown) [mannose-6-phosphate] here?
A: Its Km is 6.462 ± 0.0479 mM.
